Data taken from US20130005728A1, “SUBSTITUTED PYRIMIDINES AS PROSTAGLANDIN D2 RECEPTOR ANTAGONISTS” (AVENTIS PHARMACEUTICALS INC., priority 2010, published 2013).
Counter-ions that a name gives are not always drawn.

Biological target: T1, human prostaglandin D2 receptor (DP) (DP1) (Homo sapiens, UniProt Q13258)
T1 construct: endogenous in cells; host or cells: human platelets in platelet-rich plasma from donor blood
T1 sequence (Q13258 1-359): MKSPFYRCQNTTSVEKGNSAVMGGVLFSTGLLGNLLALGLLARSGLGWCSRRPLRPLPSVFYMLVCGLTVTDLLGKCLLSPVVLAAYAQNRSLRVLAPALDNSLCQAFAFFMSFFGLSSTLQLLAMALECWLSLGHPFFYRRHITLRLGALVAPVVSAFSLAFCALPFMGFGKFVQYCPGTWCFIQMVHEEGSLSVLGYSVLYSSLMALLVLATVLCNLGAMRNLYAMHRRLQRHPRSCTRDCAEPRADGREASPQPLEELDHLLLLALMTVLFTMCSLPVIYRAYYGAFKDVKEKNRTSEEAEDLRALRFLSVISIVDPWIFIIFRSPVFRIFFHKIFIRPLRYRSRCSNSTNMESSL
Assay: Antagonist activity on BW245C-induced cAMP accumulation in human platelet rich plasma (hPRP) by HTRF cAMP assay
Format: cell-based
Conditions: inhibition of BW245C (25 nM)-induced cAMP accumulation in human platelet rich plasma; compound tested as HCl salt; read-out: hPRP IC50 (as HCl salt)
Source text: Assessment of Antagonist Activities of Compounds on BW245C-induced cAMP Accumulation in Human Platelet Rich Plasma (hPRP) by HTRF cAMP Assay
The purpose of the assay is to assess compound antagonist activity at the human prostaglandin D2 receptor (DP) (DP1) in the presence of plasma proteins. DP is a Gs-protein coupled receptor, the activation of which induces cAMP accumulation. BW245C is a DP selective agonist. Therefore, by measuring inhibition of BW245C-induced 3′-5′-cyclic adenosine monophosphate (cAMP) accumulation in human platelet-rich plasma (PRP), the assay enables us to identify or confirm antagonist compounds at the human DP and/or IP receptors.
The principle of the assay is based on HTRF technology (Homogeneous Time-Resolved Fluorescence). The method is a competitive immunoassay between native cAMP produced by cells and the tracer cAMP labeled with the dye d2. The tracer is visualized by a monoclonal antibody anti-cAMP labeled with cryptate. The specific signal (i.e. energy transfer) is inversely related to the concentration of cAMP in the standards or samples. The assay was carried out using the cAMP HiRange HTRF kit from Cisbio (catalog number 62AM6PEB, 888-963-4567).
Preparation of Human Platelet Rich Plasma (hPRP): Human blood was obtained from sanofi-aventis on-site blood donor panel. The blood was gently transferred from the blood bag into a 50 ml centrifuge tube and centrifuged at 223×g (1000 rpm) for 15 minutes without break. The top layer (PRP) was aspirated slowly and transferred to a 250 ml centrifuge tube. The PRP was placed in the cell culture hood for approximately 30 minutes before use.
Preparation of IBMX: IBMX is a phosphodiesterase (PDE) inhibitor and is included in the assay to prevent breakdown of cAMP. 1M IBMX stock was prepared in DMSO. 20 μL of 1M IBMX stock was then added into 30 μL of DMSO to obtain a 400 mM IBMX DMSO solution. This was further diluted 1:50 in 0.9% sodium chloride to obtain an 8 mM IBMX working solution. The solution was sonicated for 60 minutes before use.
Preparation of BW245C: 10 mM BW245C stock was prepared in DMSO and aliquots were stored at −80° C. On the day of the assay, 10 mM BW245C stock was diluted 1 to 400 in DMSO to make a 25 μM solution. 100 μL of the 25 μM BW245C solution was added to 4900 μL of 0.9% sodium chloride to make a 500 nM working solution.
Dilution of compounds: 10 mM compound DMSO stock solutions were serially diluted 1:3 in DMSO in a 96-well plate to achieve 11 different concentrations ranging from 10 mM to 0.00017 mM. A further 1:20 dilution in 0.9% sodium chloride solution was carried out for each concentration to obtain working concentrations ranging from 500 μM to 0.0085 μM (11 points) for each compound. For positive and negative controls, DMSO (without compound) was diluted 1:20 in 0.9% sodium chloride solution.
Preparation of cAMP standards, cAMP-d2 and anti-cAMP cryptate (all in the assay kit): cAMP standard was reconstituted by adding distilled water according to the manufacturer's instruction (456 μL of water usually). The reconstituted cAMP standard was serially diluted 1:4 in 0.9% sodium chloride solution to achieve 11 different concentrations. cAMP-d2 was reconstituted by adding 2 mL of distilled water and then further diluting it in 8 mL of lysis buffer (in the kit). Anti-cAMP cryptate was reconstituted by adding 1.1 mL of distilled water and then further diluting it in 4.4 mL of lysis buffer.
Assay Procedure: In the assay, each compound was run in duplicate. The final assay volume was 50 μl in each well.
In the assay plate, 42 μL of platelet rich plasma (PRP) was added in each well. This was followed by the addition in each well of 2.5 μL of 8 mM IBMX (final concentration 400 μM) and 3 μL of diluted compound at varying concentrations (final concentrations ranging from 30,000 nM to 0.51 nM, 11 points for each compound). In the positive and negative control wells, 3 μL of diluted DMSO solution was added instead of compound. […]

IC50 [nM] | Compound
885 | COc1nc(NCCc2ccc(OC(F)(F)F)cc2)cc(N2CCCCC2C(=O)O)n1 (stereo not drawn) [Example 3, 1-{2-Methoxy-6-[2-(4-trifluoromethoxy-phenyl)-ethylamino]-pyrimidin-4-yl}-piperidine-2-carboxylic acid trifluoroacetate]
1180 | COc1nc(NCCc2ccc(OC(F)(F)F)cc2)cc(N2CCOCC2)n1 [Example 5, (2-Methoxy-6-morpholin-4-yl-pyrimidin-4-yl)-[2-(4-trifluoromethoxy-phenyl)-ethyl]-amine]

Same assay, conditions: inhibition of BW245C (25 nM)-induced cAMP accumulation in human platelet rich plasma; read-out: hPRP IC50

IC50 [nM] | Compound
609 | CCOC(=O)N1CCN(c2cc(NCCc3ccc(OC(F)(F)F)cc3)nc(OC)n2)CC1 [Example 6]
409 | COc1ccc([C@H]2CN(c3cc(NCCc4ccc(OC(F)(F)F)cc4)nc(OC)n3)C[C@@H]2C(=O)O)cc1 [Example 11, (3R,4S)-4-(4-Methoxy-phenyl)-1-{2-methoxy-6-[2-(4-trifluoromethoxy-phenyl)-ethylamino]-pyrimidin-4-yl}-pyrrolidine-3-carboxylic acid]
28 | COc1nc(NCCc2ccc(OC(F)(F)F)cc2)cc(N2C[C@H](C(=O)O)[C@@H](c3ccccc3)C2)n1 [Example 10, (3R,4S)-1-{2-Methoxy-6-[2-(4-trifluoromethoxy-phenyl)-ethylamino]-pyrimidin-4-yl}-4-phenyl-pyrrolidine-3-carboxylic acid]
1220 | COc1nc(NCCc2ccc(OC(F)(F)F)cc2)cc(N2CCc3ccccc3C2)n1 [Example 12, [6-(3,4-Dihydro-1H-isoquinolin-2-yl)-2-methoxy-pyrimidin-4-yl]-[2-(4-trifluoromethoxy-phenyl)-ethyl]-amine trifluoroacetic acid salt]
376 | COc1nc(NCCc2ccc(OC(F)(F)F)cc2)cc(N2C[C@@H](C(=O)O)[C@H](C(C)C)C2)n1 [Example 8, (3S,4S)-4-Isopropyl-1-{2-methoxy-6-[2-(4-trifluoromethoxy-phenyl)-ethylamino]-pyrimidin-4-yl}-pyrrolidine-3-carboxylic acid]
317 | COc1nc(NCCc2ccc(OC(F)(F)F)cc2)cc(N2CCC(C)(C(=O)O)C2)n1 (stereo not drawn) [Example 7, 1-{2-Methoxy-6-[2-(4-trifluoromethoxy-phenyl)-ethylamino]-pyrimidin-4-yl}-3-methyl-pyrrolidine-3-carboxylic acid]
436 | COc1nc(NCCc2ccc(OC(F)(F)F)cc2)cc(N2C[C@@H](C(=O)O)[C@H](c3ccccc3OC)C2)n1 (racemic) [Example 15, (±)-trans-4-(2-Methoxy-phenyl)-1-{2-methoxy-6-[2-(4-trifluoromethoxy-phenyl)-ethylamino]-pyrimidin-4-yl}-pyrrolidine-3-carboxylic acid]
32 | COc1nc(NCCc2ccc(OC(F)(F)F)cc2)cc(N2CCCCC2CC(=O)O)n1 (stereo not drawn) [Example 4, (1-{2-Methoxy-6-[2-(4-trifluoromethoxy-phenyl)-ethylamino]-pyrimidin-4-yl}-piperidin-2-yl)-acetic acid trifluoroacetate]
575 | COc1nc(NCCc2ccc(OC(F)(F)F)cc2)cc(N2CCC(C(=O)O)C2)n1 (stereo not drawn) [Example 9, 1-{2-Methoxy-6-[2-(4-trifluoromethoxy-phenyl)-ethylamino]-pyrimidin-4-yl}-pyrrolidine-3-carboxylic acid]
10 | COc1nc(NCCc2ccc(OC(F)(F)F)cc2)cc(N2CCOC(C(=O)O)C2)n1 (stereo not drawn) [Example 1, 4-{2-Methoxy-6-[2-(4-trifluoromethoxy-phenyl)-ethylamino]-pyrimidin-4-yl}-morpholine-2-carboxylic acid trifluoroacetate]
368 | COc1nc(NCCc2ccc(OC(F)(F)F)cc2)cc(N2CCN(CC(=O)O)CC2)n1 [Example 2, (4-{2-Methoxy-6-[2-(4-trifluoromethoxy-phenyl)-ethylamino]-pyrimidin-4-yl}-piperazin-1-yl)-acetic acid tristrifluoroacetate]
397 | COc1nc(NCCc2ccc(OC(F)(F)F)cc2)cc(N2CCN(c3ccccc3)CC2)n1 [Example 13, [2-Methoxy-6-(4-phenyl-piperazin-1-yl)-pyrimidin-4-yl]-[2-(4-trifluoromethoxy-phenyl)-ethyl]-amine]
713 | COc1nc(NCCc2ccc(OC(F)(F)F)cc2)cc(N2CC[C@H](CC(=O)O)C2)n1 [Example 14, ((R)-1-{2-Methoxy-6-[2-(4-trifluoromethoxy-phenyl)-ethylamino]-pyrimidin-4-yl}-pyrrolidin-3-yl)-acetic acid]
